# Legend:
# [1] = target: T1, Hsp90AB1 (Homo sapiens, UniProt P08238); test: SPR (Biacore, CM5 chip with immobilized protein); also competes with CE-P in HUVEC lysate pull-down; type: binding
# T1 construct: recombinant human Hsp90AB1 protein
# [2] = target: T1, Hsp90AB1; test: SPR (Biacore, CM5 chip with immobilized protein); also click pull-down of recombinant protein and from HUVEC lysate; type: binding
# T1 sequence (P08238 2-724): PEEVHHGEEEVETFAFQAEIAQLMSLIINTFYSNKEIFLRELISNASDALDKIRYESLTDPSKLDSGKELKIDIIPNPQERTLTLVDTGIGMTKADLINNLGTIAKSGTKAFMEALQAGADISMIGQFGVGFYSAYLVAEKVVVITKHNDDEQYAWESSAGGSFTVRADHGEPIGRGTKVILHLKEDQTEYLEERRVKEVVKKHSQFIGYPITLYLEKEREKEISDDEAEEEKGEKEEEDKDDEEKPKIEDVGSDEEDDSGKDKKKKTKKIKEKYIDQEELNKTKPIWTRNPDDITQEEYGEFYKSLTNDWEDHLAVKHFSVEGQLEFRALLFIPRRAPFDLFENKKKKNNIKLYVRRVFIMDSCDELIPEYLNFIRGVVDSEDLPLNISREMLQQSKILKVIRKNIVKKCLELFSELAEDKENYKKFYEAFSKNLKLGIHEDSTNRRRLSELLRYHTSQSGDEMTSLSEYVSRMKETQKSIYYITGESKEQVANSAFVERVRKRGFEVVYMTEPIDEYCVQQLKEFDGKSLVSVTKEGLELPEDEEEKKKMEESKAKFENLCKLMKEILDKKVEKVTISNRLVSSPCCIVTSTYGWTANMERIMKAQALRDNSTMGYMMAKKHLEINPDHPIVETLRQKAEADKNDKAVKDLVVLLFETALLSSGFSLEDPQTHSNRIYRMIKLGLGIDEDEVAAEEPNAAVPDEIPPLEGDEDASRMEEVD
structure (smiles),measurement,setting,value
"CC1(C)CC[C@]2(C(=O)O)CC[C@]3(C)C(=CC[C@@H]4[C@@]5(C)CC[C@H](O[C@@H]6O[C@H](C(=O)O)[C@@H](O)[C@H](O)[C@H]6O)C(C)(C)[C@@H]5CC[C@]43C)[C@@H]2C1 [CE, Calenduloside E]",Kd,[1],2.34 µM
"C#CCNC(=O)C12CCC(C)(C)C[C@H]1C1=CC[C@@H]3[C@@]4(C)CC[C@H](O[C@@H]5O[C@H](C(=O)O)[C@@H](O)[C@H](O)[C@H]5O)C(C)(C)[C@@H]4CC[C@@]3(C)[C@]1(C)CC2 (some centres unmarked) [VI, CE-P]",Kd,[2],23.4 µM
